Reference: patent US20210221866A1, “PROTEASE-RESISTANT LIPIDATED GLP-1 ANALOGS” (MEDIMMUNE LIMITED, priority 2015, published 2021)
Read-outs that look alike come from different tables or passages of the source. Numbered stars: 1 amine (or outer) side, 2 acyl side, 3 side chain; on linkers, the order of the positions; unused ones are H or OH. Square brackets hold non-standard residues; d marks the D form. Side chains are listed from the residue outwards. Peptide text beside a SMILES is read from it. * marks the point of attachment. C16 diacid = O=C(O)CCCCCCCCCCCCCCC(=O)*; γGlu = O=C(O)[C@H](CCC(=O)[*:2])N[*:1]; αMeF = C[C@](N)(Cc1ccccc1)C(=O)O; αMeK = C[C@](N)(CCCCN)C(=O)O; αMeS = C[C@](N)(CO)C(=O)O; AEEA = NCCOCCOCC(=O)O; Aib = CC(C)(N)C(=O)O

Key:
Type in all cases: cell-based
[1] = target: T1, human glucose-dependent insulinotropic peptide receptor (GIPR) (Homo sapiens, UniProt P48546); test: cAMP assay, human GIPR cells
T1 construct: expressed in transfected cells; host or cells: HEK293 cells or CHO cells
T1 sequence (P48546 22-466): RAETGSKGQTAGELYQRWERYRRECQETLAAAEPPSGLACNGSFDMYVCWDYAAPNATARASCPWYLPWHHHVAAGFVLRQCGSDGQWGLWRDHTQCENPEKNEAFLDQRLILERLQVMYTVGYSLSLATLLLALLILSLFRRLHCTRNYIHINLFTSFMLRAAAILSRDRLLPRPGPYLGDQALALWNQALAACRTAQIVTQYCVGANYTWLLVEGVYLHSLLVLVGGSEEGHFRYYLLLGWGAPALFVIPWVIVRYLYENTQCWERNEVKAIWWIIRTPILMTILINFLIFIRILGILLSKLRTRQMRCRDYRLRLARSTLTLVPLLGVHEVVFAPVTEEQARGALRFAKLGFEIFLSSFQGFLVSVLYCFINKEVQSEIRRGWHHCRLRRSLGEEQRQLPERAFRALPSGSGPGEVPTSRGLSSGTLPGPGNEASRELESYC
Protocol: (§1) Sample dilutions are made in duplicate.
(§2) A frozen cryo-vial of cells expressing the receptor of interest is thawed rapidly in a water-bath, transferred to pre-warmed assay buffer and spun at 240×g for 5 minutes. Cells are re-suspended in assay buffer at a batch-dependent optimized concentration (e.g. hGCGR cells at 2×10^5 cells/ml, hGLP-1R and hGIPR cells at 1×10^5 cells/ml).
(§3) To this, 5 μL cell suspension is added and the plates incubated at room temperature for 30 minutes.
(§4) cAMP levels are measured using a commercially available cAMP dynamic 2 HTRF kit (Cisbio, Cat #62AM4PEJ), following the two step protocol as per manufacturer's recommendations. In brief; anti-cAMP cryptate (donor fluorophore) and cAMP-d2 (acceptor fluorophore) are made up separately by diluting each 1/20 in conjugate & lysis buffer provided in the kit. 5 μL anti-cAMP cryptate is added to wells of the assay plate, and 5 μL cAMP-d2 is added to wells except non-specific binding (NSB) wells, to which conjugate and lysis buffer are added. […] EC50 values of the synthetic peptides determined in cAMP assays are then determined.
(§5) Data is transformed to % Delta F as described in the manufacturer's guidelines and analyzed by 4-parameter logistic fit to determine EC50 values. […] To compare the balance of activities at the GLP-1R and GCGR between different peptides and across different conditions, these can be correlated, where the EC50's are related to those of comparator peptides.

[2] = target: T2, human glucagon receptor (GCGR) (Homo sapiens, UniProt P47871); test: cAMP assay, human GCGR cells
T2 construct: expressed in transfected cells; host or cells: HEK293 cells or CHO cells
Protocol: as §1, §2, §3, §4, §5

[3] = target: T3, human GLP-1 receptor (GLP-1R) (Homo sapiens, UniProt P43220); test: cAMP assay, human GLP-1R cells
T3 construct: expressed in transfected cells; host or cells: HEK293 cells or CHO cells
Summary of the method: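 Peptide-stimulated cAMP measured by two-step HTRF after a 30 min room-temperature incubation with receptor-expressing cells (hGLP-1R, hGIPR at 1×10^5 cells/ml; hGCGR at 2×10^5 cells/ml). Duplicate dilutions; EC50 from 4-parameter logistic fit of % Delta F.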

[4] = cAMP activity, first determination (n1), read-out: Primary assay EC50 GIP-R
[5] = cAMP activity, second determination (n2), read-out: Primary assay EC50 GIP-R
[6] = cAMP activity, second determination (n2), read-out: Primary assay EC50 Gluc-R
[7] = cAMP activity, first determination (n1), read-out: Primary assay EC50 GLP-1R n1
[8] = cAMP activity, mean of n1 and n2, read-out: Mean pM GLP-1R
[9] = cAMP activity, second determination (n2), read-out: Primary assay EC50 GLP-1R n2
[10] = first replicate, read-out: Primary assay EC50 GIP-R
[11] = second replicate (n2), read-out: Primary assay EC50 GIP-R
[12] = second replicate (n2), read-out: Primary assay EC50 Gluc-R
[13] = mean of n1 and n2, read-out: Mean pM GLP-1R
[14] = replicate n1, read-out: Primary assay EC50 GLP-1R n1
[15] = replicate n2, read-out: Primary assay EC50 GLP-1R n2

T2 sequence (P47871 26-477): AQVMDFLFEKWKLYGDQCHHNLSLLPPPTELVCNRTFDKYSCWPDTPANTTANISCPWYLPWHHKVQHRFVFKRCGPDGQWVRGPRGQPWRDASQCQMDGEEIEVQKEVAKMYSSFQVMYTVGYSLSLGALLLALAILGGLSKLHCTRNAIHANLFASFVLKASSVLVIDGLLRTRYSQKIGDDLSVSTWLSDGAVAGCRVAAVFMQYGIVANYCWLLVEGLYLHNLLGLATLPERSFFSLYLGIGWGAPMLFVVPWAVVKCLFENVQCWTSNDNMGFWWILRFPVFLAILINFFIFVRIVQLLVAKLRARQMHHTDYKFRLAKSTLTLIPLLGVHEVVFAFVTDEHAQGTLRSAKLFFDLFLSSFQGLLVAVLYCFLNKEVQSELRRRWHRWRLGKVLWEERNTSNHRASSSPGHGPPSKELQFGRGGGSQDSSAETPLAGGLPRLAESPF
T3 sequence (P43220 24-463): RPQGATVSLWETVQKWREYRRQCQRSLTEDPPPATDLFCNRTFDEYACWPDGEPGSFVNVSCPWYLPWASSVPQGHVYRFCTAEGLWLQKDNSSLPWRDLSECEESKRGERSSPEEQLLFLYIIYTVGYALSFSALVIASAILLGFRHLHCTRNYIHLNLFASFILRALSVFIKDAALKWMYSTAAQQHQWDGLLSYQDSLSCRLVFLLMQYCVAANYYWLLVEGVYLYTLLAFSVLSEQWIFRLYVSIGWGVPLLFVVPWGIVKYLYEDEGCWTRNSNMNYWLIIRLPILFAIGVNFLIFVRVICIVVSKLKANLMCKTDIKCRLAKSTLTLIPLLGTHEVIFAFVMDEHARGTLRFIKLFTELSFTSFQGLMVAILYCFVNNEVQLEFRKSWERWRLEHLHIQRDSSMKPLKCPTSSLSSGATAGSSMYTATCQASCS

Row | EC50 [1, 4] [nM] | EC50 [1, 5] [nM] | EC50 [2, 6] [nM] | EC50 [3, 7] [pM] | EC50 [3, 8] [pM] | EC50 [3, 9] [pM] | EC50 [1, 10] [nM] | EC50 [1, 11] [nM] | EC50 [2, 12] [nM] | EC50 [3, 13] [pM] | EC50 [3, 14] [pM] | EC50 [3, 15] [pM] | SMILES | other results
1 | ≥ 28 | ≥ 28 | ≥ 28 | 140 | 148 | 160 |  |  |  |  |  |  | CC[C@H](C)[C@H](NC(=O)[C@](C)(Cc1ccccc1)NC(=O)[C@H](CCC(=O)O)NC(=O)[C@H](CCCCNC(=O)CCCCCNC(=O)CCCCCCCCCCCCCCCCC(=O)O)NC(=O)[C@H](C)NC(=O)[C@H](C)NC(=O)[C@H](CCC(=O)O)NC(=O)CNC(=O)[C@H](CCC(=O)O)NC(=O)[C@H](CC(C)C)NC(=O)[C@](C)(Cc1ccccc1)NC(=O)[C@H](CO)NC(=O)[C@](C)(CO)NC(=O)[C@@H](NC(=O)[C@H](CC(=O)O)NC(=O)[C@H](CO)NC(=O)[C@@H](NC(=O)[C@](C)(Cc1ccccc1)NC(=O)[C@H](CO)NC(=O)CNC(=O)[C@H](CCC(=O)O)NC(=O)C(C)(C)NC(=O)[C@@H](N)Cc1c[nH]cn1)[C@@H](C)O)C(C)C)C(=O)N[C@@H](C)C(=O)N[C@@](C)(Cc1ccccc1)C(=O)N[C@H](C(=O)N[C@H](C(=O)N[C@@](C)(CCCCN)C(=O)NCC(=O)NCC(N)=O)C(C)C)C(C)C [compound 158] | 
2 | ≥ 28 | ≥ 28 | ≥ 28 | 170 | 125 | 77 |  |  |  |  |  |  | CCCCCCCCCCCCCCCCCC(=O)NCCOCCOCC(=O)NCCCC[C@H](NC(=O)[C@@H](NC(=O)[C@@H](NC(=O)[C@](C)(Cc1ccccc1)NC(=O)[C@H](C)NC(=O)[C@@H](NC(=O)[C@](C)(Cc1ccccc1)NC(=O)[C@H](CCC(=O)O)NC(=O)[C@](C)(CCCCN)NC(=O)[C@H](C)NC(=O)[C@H](C)NC(=O)[C@H](CCC(=O)O)NC(=O)CNC(=O)[C@H](CCC(=O)O)NC(=O)[C@H](CC(C)C)NC(=O)[C@](C)(Cc1ccccc1)NC(=O)[C@H](CO)NC(=O)[C@](C)(CO)NC(=O)[C@@H](NC(=O)[C@H](CC(=O)O)NC(=O)[C@H](CO)NC(=O)[C@@H](NC(=O)[C@](C)(Cc1ccccc1)NC(=O)[C@H](CO)NC(=O)CNC(=O)[C@H](CCC(=O)O)NC(=O)C(C)(C)NC(=O)[C@@H](N)Cc1c[nH]cn1)[C@@H](C)O)C(C)C)[C@@H](C)CC)C(C)C)C(C)C)C(=O)NCC(=O)NCC(N)=O [compound 188] | 
3 |  |  |  |  |  |  | ≥ 26 | ≥ 26 | ≥ 26 | 125 | 190 | 63 | CC[C@H](C)[C@H](NC(=O)[C@](C)(Cc1ccccc1)NC(=O)[C@H](CCC(=O)O)NC(=O)[C@](C)(CCCCN)NC(=O)[C@H](C)NC(=O)[C@H](C)NC(=O)[C@H](CCC(=O)O)NC(=O)CNC(=O)[C@H](CCC(=O)O)NC(=O)[C@H](CC(C)C)NC(=O)[C@](C)(Cc1ccccc1)NC(=O)[C@H](CO)NC(=O)[C@](C)(CO)NC(=O)[C@@H](NC(=O)[C@H](CC(=O)O)NC(=O)[C@H](CO)NC(=O)[C@@H](NC(=O)[C@](C)(Cc1ccccc1)NC(=O)[C@H](CO)NC(=O)CNC(=O)[C@H](CCC(=O)O)NC(=O)C(C)(C)NC(=O)[C@@H](N)Cc1c[nH]cn1)[C@@H](C)O)C(C)C)C(=O)N[C@@H](C)C(=O)N[C@@](C)(Cc1ccccc1)C(=O)N[C@H](C(=O)N[C@H](C(=O)N[C@@H](CCCCNC(=O)CCCCCNC(=O)CCCCCNC(=O)CCCCCNC(=O)CCCCCCCCCCCCCCCCC(=O)O)C(=O)NCC(=O)NCC(N)=O)C(C)C)C(C)C [compound 196] | 
4 |  |  |  |  |  |  | ≥ 27 | ≥ 27 | ≥ 27 | 79 | 120 | 34 | CC[C@H](C)[C@H](NC(=O)[C@](C)(Cc1ccccc1)NC(=O)[C@H](CCC(=O)O)NC(=O)[C@](C)(CCCCN)NC(=O)[C@H](C)NC(=O)[C@H](C)NC(=O)[C@H](CCC(=O)O)NC(=O)CNC(=O)[C@H](CCC(=O)O)NC(=O)[C@H](CC(C)C)NC(=O)[C@](C)(Cc1ccccc1)NC(=O)[C@H](CO)NC(=O)[C@](C)(CO)NC(=O)[C@@H](NC(=O)[C@H](CC(=O)O)NC(=O)[C@H](CO)NC(=O)[C@@H](NC(=O)[C@](C)(Cc1ccccc1)NC(=O)[C@H](CO)NC(=O)CNC(=O)[C@H](CCC(=O)O)NC(=O)C(C)(C)NC(=O)[C@@H](N)Cc1c[nH]cn1)[C@@H](C)O)C(C)C)C(=O)N[C@@H](C)C(=O)N[C@@](C)(Cc1ccccc1)C(=O)N[C@H](C(=O)N[C@H](C(=O)N[C@@H](CCCCNC(=O)COCCOCCNC(=O)CCCCCCCCCCCCCCCCC(=O)O)C(=O)NCC(=O)NCC(N)=O)C(C)C)C(C)C [compound 197] | 
5 |  |  |  |  |  |  |  |  |  |  |  |  | CC[C@H](C)[C@H](NC(=O)[C@H](Cc1ccccc1)NC(=O)[C@H](CCC(=O)O)NC(=O)[C@](C)(CCCCN)NC(=O)[C@H](C)NC(=O)[C@H](C)NC(=O)[C@H](CCC(=O)O)NC(=O)CNC(=O)[C@H](CCC(=O)O)NC(=O)[C@H](CC(C)C)NC(=O)[C@H](CCCCNC(=O)COCCOCCNC(=O)COCCOCCNC(=O)CC[C@H](NC(=O)CCCCCCCCCCCCCCC(=O)O)C(=O)O)NC(=O)[C@H](CO)NC(=O)[C@](C)(CO)NC(=O)[C@@H](NC(=O)[C@H](CC(=O)O)NC(=O)[C@H](CO)NC(=O)[C@@H](NC(=O)[C@](C)(Cc1ccccc1)NC(=O)[C@H](CO)NC(=O)CNC(=O)[C@H](CCC(=O)O)NC(=O)C(C)(C)NC(=O)[C@@H](N)Cc1c[nH]cn1)[C@@H](C)O)C(C)C)C(=O)N[C@@H](C)C(=O)N[C@@H](Cc1c[nH]c2ccccc12)C(=O)N[C@@H](CCCCNC(=O)COCCOCCNC(=O)COCCOCCNC(=O)CC[C@H](NC(=O)CCCCCCCCCCCCCCC(=O)O)C(=O)O)C(=O)N[C@H](C(=O)N[C@@H](CCC(=O)O)C(=O)NCC(=O)NCC(N)=O)C(C)C [compound 267] (H-H[Aib]EGS[αMeF]TSDV[αMeS]SK([AEEA-AEEA-γGlu-C16 diacid])LEGEAA[αMeK]EFIAWK([AEEA-AEEA-γGlu-C16 diacid])VEGG-NH2; N-terminus assumed) | EC50 ([1]; Table 9, bis-lipidated peptides, first replicate, read-out: Primary assay EC50 GIP-R (n1)): ≥ 21.7 nM; EC50 ([1]; Table 9, bis-lipidated peptides, second replicate, read-out: Primary assay EC50 GIP-R (n2)): ≥ 21.7 nM; EC50 ([2]; Table 9, bis-lipidated peptides, first replicate, read-out: Primary assay EC50 Gluc-R (n1)): ≥ 21.7 nM; EC50 ([2]; Table 9, bis-lipidated peptides, second replicate, read-out: Primary assay EC50 Gluc-R (n2)): ≥ 21.7 nM; EC50 ([3]; Table 9, bis-lipidated peptides, mean of n1 and n2, read-out: Primary assay EC50 Mean pM GLP-1R): 569 pM; EC50 ([3]; Table 9, bis-lipidated peptides, replicate n1, read-out: Primary assay EC50 GLP-1R n1): 628 pM; EC50 ([3]; Table 9, bis-lipidated peptides, replicate n2, read-out: Primary assay EC50 GLP-1R n2): 510 pM
